The values that follow are results of earlier work, collected in article PMC8622523, “New Diterpenoids from Mesona procumbens with Antiproliferative Activities Modulate Cell Cycle Arrest and Apoptosis in Human Leukemia Cancer Cells” (Pharmaceuticals, 2021).

The test system of one series is hepatoma. The arrangement: method as in PMID 30835539. Conditions: read-out: anti-hepatoma IC50; cited from earlier work.
Another series deals with HL-60 cells. The arrangement: method as in PMID 20851175. Conditions: cited from earlier work.
The next series concerns KYSE-450 cells. Conditions: cited from earlier work.
For the next series, the system named is KYSE-150 cells. Conditions: cited from earlier work.

Broadly, the IC50 is the concentration at which inhibition is half-maximal. Consider “4α-hydroxy-17,19-dinor-ent-kaurane-16-one”, for which, in the series on hepatoma, the IC50 is greater than 100 µM.
`C=C1C(=O)[C@@]23[C@H](O)C[C@@H]4C(C)(C)C(=O)CC[C@@]4(C)[C@@H]2CC[C@@H]1[C@H]3O` [glaucocalyxin A]: the apoptosis induction entry in the series with HL-60 cells is “induced apoptosis in HL-60 cells”.
As for `C=C1C(=O)[C@@]23[C@@H]4O[C@H]5O[C@@]2(O)[C@@H](O)[C@@H]2C(C)(C)CCC[C@]52[C@@H]3CC[C@@H]14` [xerophilusin B], the “apoptosis and cell cycle arrest” value with KYSE-450 cells is “induce apoptosis and G2/M phase cell cycle arrest”; in the series on KYSE-150 cells it was “induce apoptosis and G2/M phase cell cycle arrest”.
